Reference: patent US20260159528A1, “HETEROCYCLIC COMPOUNDS AS TRIGGERING RECEPTOR EXPRESSED ON MYELOID CELLS 2 AGONISTS AND METHODS OF USE” (Vigil Neuroscience, Inc., priority 2021, published 2026)

What follows are compounds tested against T1, human TREM2 (Homo sapiens, UniProt Q9NZC2) (assay: TREM2 agonist potency by cellular Syk phosphorylation (AlphaLisa) in HEK293T-hTREM2 cells). Conditions: Table D-2; HEK293 cells expressing human TREM2 and DAP12; pSyk AlphaLisa.
T1 construct: expressed in transfected cells; host or cells: HEK293T
T1 sequence (Q9NZC2 19-230): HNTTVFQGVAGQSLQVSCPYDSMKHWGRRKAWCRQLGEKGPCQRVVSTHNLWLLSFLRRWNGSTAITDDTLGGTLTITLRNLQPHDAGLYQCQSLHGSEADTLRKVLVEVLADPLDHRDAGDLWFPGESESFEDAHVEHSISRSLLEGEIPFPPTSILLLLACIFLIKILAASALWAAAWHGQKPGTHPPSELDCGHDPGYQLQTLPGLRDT
T1 sequence (O43914 22-113 partner): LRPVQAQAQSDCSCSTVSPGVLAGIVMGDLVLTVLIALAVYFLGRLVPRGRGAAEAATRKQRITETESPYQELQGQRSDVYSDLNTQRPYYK
Type: cell-based
Procedure: In vitro Measurement of Triggering Receptor Expressed on Myeloid Cells 2 activity using cellular phosphorylation of Spleen Tyrosine Kinase (“Syk”) Assays
Measurement of TREM2 agonist potency was done using a HEK cell line expressing human TREM2 and DAP12 (HEK293T-hTREM2 cells). Binding of small molecules to, and activation of, TREM2 increases the phosphorylation of Syk. The resultant levels of Syk phosphorylation are measured using a commercial AlphaLisa reagent kit. To perform the assay, HEK-hTREM2 cells were plated at 14,000 cells per well in a 384 well plate, in 25 µL of complete growth media and incubated at 37° C., 5% CO2 for 20-24 hours.
Prior to the assay, test compounds were diluted in the 384 well plates in assay buffer and allowed to equilibrate for 30 minutes. Growth media was removed from cell plates by inversion on blotting paper, and 25 μL of test articles in assay buffer was added to cells. Cells were incubated for 45 minutes at room temperature. After 45 minutes, assay buffer was removed and 10 μL of lysis buffer was added. Plates were shaken for 20 minutes at 350 RPM at room temperature. After complete lysis, AlphaLisa reagents were added to the lysate, and fluorescence intensity was measured using a Perkin Elmer Envision plate reader. Intensities were used to generate a standard curve, and % activation was calculated. Curve fitting was performed using Prism v9 software, log(agonist) vs response—variable slope (four parameters), and EC50s were calculated from the curve fit.
The results presented in Table D have been generated with the in vitro assay described above. This assay may be used to test any of the compounds described herein to assess and characterize a compound's ability to act as an agonist of TREM2.

Compound	EC50
CO[C@H]1CCN(c2nc3nc(N4C[C@@H](C)O[C@@H](c5cnn(C6CC6)c5)C4)nc(-c4ccc(F)cc4F)c3s2)C1 [Compound I-224, (2S,6R)-2-(1-cyclopropylpyrazol-4-yl)-4-[7-(2,4-difluorophenyl)-2-[(3S)-3-methoxypyrrolidin-1-yl]thiazolo[4,5-d]pyrimidin-5-yl]-6-methyl-morpholine]	≤ 0.05 µM
CN(C)c1nc2nc([C@H]3CCO[C@@H](c4cnn(C5CC5)c4)C3)nc(-c3ccc(C(F)(F)F)cc3F)c2s1 (single isomer, unassigned) [Compound I-134]	0.05 to 0.5 µM
CO[C@@H]1CCN(c2nc3nc(N4C[C@@H](C)O[C@@H](c5cnn(C6CC6)c5)C4)nc(-c4ccc(F)cc4F)c3s2)C1 [Compound I-221, (2S,6R)-2-(1-cyclopropyl-1H-pyrazol-4-yl)-4-(7-(2,4-difluorophenyl)-2-((R)-3-methoxypyrrolidin-1-yl)thiazolo[4,5-d]pyrimidin-5-yl)-6-methylmorpholine]	≤ 0.05 µM
